Here are results for four substances from US10265257B2, “Personal care composition” (Innospec Limited, priority 2007, dated 2019).

Data set [1] has as its system Zein protein. The note with it: stated as known for comparison compounds; cited from earlier work.
A short description of data set [2]: Simple solubility tests in deionised water. It counts as physicochemical.
Data set [3] concerns Zein protein. Nature of the data set: Zein protocol in-vitro skin irritancy test. The note with it: FIG. 3, surfactant solution 2 wt %, 1 hour at 35° C.
Excerpt: (§2) The Zein protocol is an in-vitro test to measure skin irritancy of formulations. The method makes use of the correlation between binding ability of surfactants to proteins and the damage the surfactant causes to the skin. […] Zein protein, an insoluble protein extracted from corn kernel, is used as a model for epidermal protein and the solubility of the Zein protein in surfactant solutions is believed to be a reliable guide for the skin irritancy caused by the surfactant. The test involves establishing the amount of Zein protein which can be solubilised by surfactant. 5 g of Zein protein may be dispersed in 40 cm^3 of surfactant solution (at 2 wt % concentration). The mixture is shaken for 1 hour at 35° C., and immediately centrifuged to remove any non-solubilised Zein. The amount solubilised is estimated from the solution nitrogen content using micro-Kjeldahl method (making allowance for any nitrogen in the compound tested).
The nature of data set [4]: Stability of SCMI in aqueous solution (amount of SCMI present over time). The note with it: 10 wt % aqueous solutions, initial pH 4.5, 5.5, 6.5, 7.5, 8.5 and 9.5, held at 48.9° C., 30 days. The format is physicochemical. As to the method: In a preliminary test the stability of SCMI in 10 wt % aqueous solutions adjusted to have initial pH values respectively of 4.5, 5.5, 6.5, 7.5, 8.5 and 9.5, each held at 48.9° C. for an extended period of days, were tested for the amount of SCMI present over the test period.
(§1) The pH values were read using a standard electrode pH meter (Fisher Accument XL-25). The electrode was place in the composition (no further dilution) and the pH recorded.

The nature of data set [5]: pH stability of SCMI solutions over time. The format is physicochemical. As to the method: as §1
In a preliminary test 10 wt % solutions of SCMI, adjusted to have initial pH values respectively of 4.5, 5.5, 6.5, 7.5, 8.5 and 9.5, each held at 48.9° C. for an extended period of days, were tested for their pH stability over the extended period. The pH testing was as described above.

The test system of data set [6] is Zein protein.
Excerpt: as §2

Where two headings read alike, the source gives them in different places.

With sodium cocoyl isethionate [SCI], the “skin irritancy, known” value in the data set on Zein protein [1] is given as “low irritancy”.

As to sodium cocoylmethylisethionate [SCMI], the “appearance of 10 wt % in deionised water (solubility test)” value in data set [2] is “clear solution”. Besides, the “skin irritancy (Zein protocol)” value in the data set with Zein protein [3] was “low irritancy”. Further, the “percentage of SCMI present, Day 0 to Day 30” value in data set [4] is given as “does not change”. Also, in data set [5] (10 wt % solution, initial pH 9.5, 48.9° C., first few days), the “pH change of sample held at highest pH value” is listed as “small pH reduction”. In data set [5] (10 wt % solutions, initial pH 4.5 to 9.5, held at 48.9° C., 30 days), the “pH values from Day 0 to Day 30” value is recorded as “substantially unchanged”.

Consider sodium laureth sulfate [SLES], for which the “skin irritancy, known” value in the data set on Zein protein [1] is recorded as “significant irritancy”.

For the substance sodium lauroylmethylisethionate [SLMI], in the data set on Zein protein [6], the “skin irritancy (Zein protocol)” value is “low irritancy”.
